Measurements: PubChem BioAssay AID328 (DTP/NCI, 2004)
Where “and” joins values, the source holds several entries; their conditions need not be identical. Equal entries are not always repeated. Toxic doses and inconclusive results are not listed.

Test system: BDF1 mice, P388 leukemia ip, median survival T/C
Test: NCI In Vivo Anticancer Drug Screen. Data for tumor model P388 Leukemia (intraperitoneal) in B6D2F1 (BDF1) mice
Conditions: endpoint: median survival time, higher = longer survival
Procedure, shortened: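 Transplantable tumour in mice; compound vs vehicle dosing; survival scored; ratio of treated to control reported.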

[1] = dose: 100.0 mg/kg/injection, schedule: Q04DX003 (ip), vehicle: Klucel (hydroxypropylcellulose) (HPC)

COC(CN(C)C(=O)NC1CCCCC1)OC
T/C (dose: 50.0 mg/kg/injection, schedule: Q04DX003 (ip), vehicle: saline with Tween-80): 95 % of control | T/C (dose: 100.0 mg/kg/injection, schedule: Q04DX003 (ip), vehicle: saline with Tween-80): 100 % of control | T/C (dose: 200.0 mg/kg/injection, schedule: Q04DX003 (ip), vehicle: saline with Tween-80): 100 % of control

C1CCN(CC2CCCCN2)CC1 (centres undefined)
T/C (dose: 25.0 mg/kg/injection, schedule: Q01DX009 (ip), vehicle: Klucel (hydroxypropylcellulose) (HPC)): 100 % of control | T/C (dose: 25.0 mg/kg/injection, schedule: Q04DX003 (ip), vehicle: Klucel (hydroxypropylcellulose) (HPC)): 105 % of control | T/C (dose: 50.0 mg/kg/injection, schedule: Q01DX009 (ip), vehicle: Klucel (hydroxypropylcellulose) (HPC)): 100 % of control | T/C (dose: 50.0 mg/kg/injection, schedule: Q04DX003 (ip), vehicle: Klucel (hydroxypropylcellulose) (HPC)): 100 % of control | T/C (dose: 100.0 mg/kg/injection, schedule: Q01DX009 (ip), vehicle: Klucel (hydroxypropylcellulose) (HPC)): 90 % of control | T/C [1]: 110 % of control

CC(=O)CC(C)=O.CC(=O)CC(C)=O.C[CH2][Sn][CH2]C
T/C (dose: 12.5 mg/kg/injection, schedule: Q01DX001 (ip), vehicle: Klucel (hydroxypropylcellulose) (HPC)): 116 % of control

Cc1ccc(Cl)cc1NC(=O)c1ccccc1C(=O)O
T/C [1]: 91 % of control | T/C (dose: 200.0 mg/kg/injection, schedule: Q04DX003 (ip), vehicle: Klucel (hydroxypropylcellulose) (HPC)): 95 % of control | T/C (dose: 400.0 mg/kg/injection, schedule: Q04DX003 (ip), vehicle: Klucel (hydroxypropylcellulose) (HPC)): 91 % of control

CCOC(=O)Cc1c[nH]c2ccc(N(CCCl)CCCl)cc12
T/C (dose: 0.11 mg/kg/injection, schedule: Q04DX003 (ip), vehicle: Klucel (hydroxypropylcellulose) (HPC)): 116 % of control | T/C (dose: 0.17 mg/kg/injection, schedule: Q04DX003 (ip), vehicle: Klucel (hydroxypropylcellulose) (HPC)): 120 % of control | T/C (dose: 0.26 mg/kg/injection, schedule: Q04DX003 (ip), vehicle: Klucel (hydroxypropylcellulose) (HPC)): 100 % of control | T/C (dose: 0.5 mg/kg/injection, schedule: Q01DX009 (ip), vehicle: Klucel (hydroxypropylcellulose) (HPC)): 154 % of control | T/C (dose: 0.8 mg/kg/injection, schedule: Q01DX009 (ip), vehicle: Klucel (hydroxypropylcellulose) (HPC)): 175 % of control | T/C (dose: 0.9 mg/kg/injection, schedule: Q04DX003 (ip), vehicle: Klucel (hydroxypropylcellulose) (HPC)): 154 % of control | T/C (dose: 1.3 mg/kg/injection, schedule: Q01DX009 (ip), vehicle: Klucel (hydroxypropylcellulose) (HPC)): 250 % of control | T/C (dose: 1.4 mg/kg/injection, schedule: Q04DX003 (ip), vehicle: Klucel (hydroxypropylcellulose) (HPC)): 163 % of control | T/C (dose: 2.0 mg/kg/injection, schedule: Q01DX009 (ip), vehicle: Klucel (hydroxypropylcellulose) (HPC)): 272 % of control | T/C (dose: 2.2 mg/kg/injection, schedule: Q04DX003 (ip), vehicle: Klucel (hydroxypropylcellulose) (HPC)): 204 % of control | T/C (dose: 3.0 mg/kg/injection, schedule: Q01DX009 (ip), vehicle: Klucel (hydroxypropylcellulose) (HPC)): 230 % of control and 272 % of control | T/C (dose: 3.3 mg/kg/injection, schedule: Q04DX003 (ip), vehicle: Klucel (hydroxypropylcellulose) (HPC)): 222 % of control | T/C (dose: 4.5 mg/kg/injection, schedule: Q01DX009 (ip), vehicle: Klucel (hydroxypropylcellulose) (HPC)): 154 % of control | T/C (dose: 5.0 mg/kg/injection, schedule: Q04DX003 (ip), vehicle: Klucel (hydroxypropylcellulose) (HPC)): 245 % of control and 272 % of control | T/C (dose: 6.0 mg/kg/injection, schedule: Q01DX009 (ip), vehicle: Klucel (hydroxypropylcellulose) (HPC)): 107 % of control | T/C (dose: 7.5 mg/kg/injection, schedule: Q04DX003 (ip), vehicle: Klucel (hydroxypropylcellulose) (HPC)): 240 % of control | T/C (dose: 8.0 mg/kg/injection, schedule: Q04DX003 (ip), vehicle: Klucel (hydroxypropylcellulose) (HPC)): 272 % of control | T/C (dose: 12.5 mg/kg/injection, schedule: Q04DX003 (ip), vehicle: Klucel (hydroxypropylcellulose) (HPC)): 272 % of control

C=C(COc1ccc(Cl)cc1)COc1ccc(Cl)cc1
T/C (dose: 50.0 mg/kg/injection, schedule: Q01DX001 (ip), vehicle: other): 103 % of control | T/C (dose: 50.0 mg/kg/injection, schedule: Q04DX003 (ip), vehicle: other): 100 % of control | T/C (dose: 100.0 mg/kg/injection, schedule: Q01DX001 (ip), vehicle: other): 100 % of control | T/C (dose: 100.0 mg/kg/injection, schedule: Q04DX003 (ip), vehicle: other): 91 % of control | T/C (dose: 200.0 mg/kg/injection, schedule: Q01DX001 (ip), vehicle: other): 94 % of control | T/C (dose: 200.0 mg/kg/injection, schedule: Q04DX003 (ip), vehicle: other): 101 % of control | T/C (dose: 400.0 mg/kg/injection, schedule: Q01DX001 (ip), vehicle: other): 102 % of control | T/C (dose: 400.0 mg/kg/injection, schedule: Q04DX003 (ip), vehicle: other): 93 % of control
